In test [1] the target is T1, human kynurenine aminotransferase I (hKAT I) (Homo sapiens, UniProt Q16773).
T1 sequence (Q16773 1-422): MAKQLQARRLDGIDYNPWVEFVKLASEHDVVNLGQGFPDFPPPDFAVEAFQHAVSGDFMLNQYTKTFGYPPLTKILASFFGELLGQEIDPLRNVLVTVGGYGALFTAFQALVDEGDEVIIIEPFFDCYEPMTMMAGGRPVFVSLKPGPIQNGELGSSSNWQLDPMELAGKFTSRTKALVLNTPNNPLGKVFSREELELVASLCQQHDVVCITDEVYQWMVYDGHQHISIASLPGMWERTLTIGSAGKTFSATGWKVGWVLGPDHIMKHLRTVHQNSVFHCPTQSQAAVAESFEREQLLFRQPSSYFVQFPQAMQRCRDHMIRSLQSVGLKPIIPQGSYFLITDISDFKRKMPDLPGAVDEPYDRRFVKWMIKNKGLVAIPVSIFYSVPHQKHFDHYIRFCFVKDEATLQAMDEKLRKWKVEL
The test can be described thus: transamination assay, HPLC of KYNA. It is filed as biochemical.

The target of test [2] is T1, human kynurenine aminotransferase I (hKAT I). The experiment in a line: transamination assay, HPLC of KYNA. It is filed as biochemical. This is another data set of the same source.
Test [3] has the same target. The test can be described thus: co-crystal structure at […] Å. It counts as binding.

On to `N[C@@H](Cc1c[nH]c2ccccc12)C(=O)O` [tryptophan], for which, in test [1], the “transamination assay, HPLC of KYNA (0.08-10 mM); competing substrate” value is “Figure 6B shows the inhibitions of tryptophan and indole-3-pyruvic acid”.
For `O=C(O)/C=C/c1c[nH]c2ccccc12` [trans-3-indoleacrylic acid], in test [2], the “transamination assay, HPLC of KYNA (0.08-10 mM)” value is recorded as “All six of the chemicals strongly inhibited hKAT I”.
Take `NC(CO)(CO)CO` [Tris]: the “co-crystal structure at 1.50 Å (one of two subunits)” value in test [3] was “Tris lies near the PLP cofactor and that the Tris amine does not form an external aldimine with PLP”.
Consider `O=C(O)C(=O)Cc1c[nH]c2ccccc12` [indole-3-pyruvic acid], for which the “transamination assay, HPLC of KYNA (0.08-10 mM); competing substrate” value in test [1] was “Figure 6B shows the inhibitions of tryptophan and indole-3-pyruvic acid”.

The values are drawn from paper PMC2844090 (Journal of medicinal chemistry, 2009).
